Laboratory results published in the supplement of paper PMC11616607.

tested on: HOSE1C; experiment: drug sensitivity score (DSS) from 5-point dose-response viability curve (DSS (area-under-curve based score)); higher = more sensitive (stronger growth inhibition or killing); extreme values may be limits of the assay; conditions: exposure time: 72 h; concentration range: 5 concentrations over 10,000-fold range
In short: (§1)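 Ovarian cancer and normal ovarian cell lines were tested in 384-well plates. Drugs were acoustically dispensed (Echo 550) in DMSO or water at five concentrations spanning a 10,000-fold range, then 1,500 cells per well were added and incubated 3 days at 37°C, 5% CO2. Viability was read by CellTiter-Glo luminescence on a PHERAstar FS. Drug sensitivity score was derived per cell line and drug with Breeze software; higher means more sensitive, zero means no response.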

Row | Structure (SMILES) | drug sensitivity score
1 | COc1cc(CCc2cc(NC(=O)c3ccc(N4CC(C)NC(C)C4)cc3)n[nH]2)cc(OC)c1 (centres undefined) [AZD4547] | 0.8
2 | CN(C)C(=O)c1ccc(S(=O)(=O)c2ccc(NC(=O)[C@@](C)(O)C(F)(F)F)c(Cl)c2)cc1 [AZD7545] | 0
3 | NC(=O)Nc1cc(-c2cccc(F)c2)sc1C(=O)N[C@H]1CCCNC1 [AZD7762] | 7.4
4 | COc1ccc(-c2ccc3c(N4CCOC[C@@H]4C)nc(N4CCOC[C@@H]4C)nc3n2)cc1CO [AZD8055] | 20.7
5 | N#Cc1ccc2[nH]c(O)c(-c3ccc(CN4CCOCC4)cn3)c2c1 [AZD-1080] | 0
6 | Cc1ncc(-c2ccnc(Nc3ccc(S(C)(=O)=O)cc3)n2)n1C(C)C [AZD-5438] | 7
7 | Cc1cc([C@@H](C)Nc2ccccc2C(=O)O)c2nc(N3CCOCC3)cc(=O)n2c1 [AZD-6482] | 0.3
8 | C[C@@H](Nc1cc(F)cc(F)c1)c1cc(C(=O)N(C)C)cc2c(=O)cc(N3CCOCC3)oc12 [AZD-8186] | 0.1
9 | CCN1CCN(Cc2ccc(Nc3ncc(F)c(-c4cc(F)c5nc(C)n(C(C)C)c5c4)n3)nc2)CC1 [Abemaciclib] | 1.6
10 | CN(C)Cc1c(C(=O)NCCOc2ccc(C(=O)NO)cc2)oc2ccccc12 [Abexinostat] | 24.1
11 | C[C@]12CC[C@H](O)CC1=CC[C@@H]1[C@@H]2CC[C@]2(C)C(c3cccnc3)=CC[C@@H]12 [Abiraterone] | 0.1
12 | CC#CC(=O)N1CCC[C@H]1c1nc(-c2ccc(C(=O)Nc3ccccn3)cc2)c2c(N)nccn12 [Acalabrutinib] | 0
13 | COc1cc(C)c(/C=C/C(C)=C/C=C/C(C)=C/C(=O)O)c(C)c1C [Acitretin] | 0.1
14 | CN(C)C/C=C/C(=O)Nc1cc2c(Nc3ccc(F)c(Cl)c3)ncnc2cc1O[C@H]1CCOC1 [Afatinib] | 0
15 | Cn1ncc(Cl)c1-c1cc(C(=O)N[C@H](CN)Cc2cccc(F)c2)sc1Cl [Afuresertib] | 2.9
16 | COc1cccc2c1C(=O)c1c(O)c3c(c(O)c1C2=O)C[C@@](O)(/C(CO)=N/NC(=O)CCCCCN1C(=O)C=CC1=O)C[C@@H]3O[C@H]1C[C@H](N)[C@H](O)[C@H](C)O1 [Aldoxorubicin] | 6.8
17 | CCc1cc2c(cc1N1CCC(N3CCOCC3)CC1)C(C)(C)c1[nH]c3cc(C#N)ccc3c1C2=O [Alectinib] | 0
18 | COc1cc(Nc2ncc3c(n2)-c2ccc(Cl)cc2C(c2c(F)cccc2OC)=NC3)ccc1C(=O)O [Alisertib] | 8.9
19 | Oc1ncnc2[nH]ncc12 [Allopurinol] | 0
20 | Cc1nc(NC(=O)N2CCC[C@H]2C(N)=O)sc1-c1ccnc(C(C)(C)C(F)(F)F)c1 [Alpelisib] | 2.2
21 | O=C(Nc1cc(Oc2cc(F)c(NC(=O)C3(C(=O)Nc4ccc(F)cc4)CC3)cc2F)ccn1)C1CC1 [Altiratinib] | 4.2
22 | CN1CC[C@H](c2c(O)cc(O)c3c(=O)cc(-c4ccccc4Cl)oc23)[C@H](O)C1 [Alvocidib] | 18.9
23 | CCN(CC)CCNC(=O)c1c(C)[nH]c(/C=C2\C(=O)Nc3ccc(-c4csc(-c5ccccc5)n4)cc32)c1C [Amcasertib] | 8.8
24 | CCC1(c2ccc(N)cc2)CCC(=O)NC1=O (centres undefined) [Aminoglutethimide] | 0.2
25 | COc1cc(NS(C)(=O)=O)ccc1Nc1c2ccccc2nc2ccccc12 [Amsacrine] | 13.7
26 | S=C(NCc1ccc2c(c1)OCO2)N1CCN(c2ncnc3c2oc2ccccc23)CC1 [Amuvatinib] | 0
27 | O=C1CN2Cc3c(ccc(Cl)c3Cl)N=C2N1 [Anagrelide] | 0
28 | CC(C)(C#N)c1cc(Cn2cncn2)cc(C(C)(C)C#N)c1 [Anastrozole] | 0

tested on: HOSE2C; experiment: as above; conditions: exposure time: 72 h; concentration range: 5 concentrations over 10,000-fold range
In short: as §1

Row | Structure (SMILES) | drug sensitivity score
29 | COc1cc(CCc2cc(NC(=O)c3ccc(N4CC(C)NC(C)C4)cc3)n[nH]2)cc(OC)c1 (centres undefined) [AZD4547] | 5.8
30 | CN(C)C(=O)c1ccc(S(=O)(=O)c2ccc(NC(=O)[C@@](C)(O)C(F)(F)F)c(Cl)c2)cc1 [AZD7545] | 0.4
31 | NC(=O)Nc1cc(-c2cccc(F)c2)sc1C(=O)N[C@H]1CCCNC1 [AZD7762] | 7.8
32 | COc1ccc(-c2ccc3c(N4CCOC[C@@H]4C)nc(N4CCOC[C@@H]4C)nc3n2)cc1CO [AZD8055] | 16.2
33 | N#Cc1ccc2[nH]c(O)c(-c3ccc(CN4CCOCC4)cn3)c2c1 [AZD-1080] | 0.3
34 | Cc1ncc(-c2ccnc(Nc3ccc(S(C)(=O)=O)cc3)n2)n1C(C)C [AZD-5438] | 2
35 | Cc1cc([C@@H](C)Nc2ccccc2C(=O)O)c2nc(N3CCOCC3)cc(=O)n2c1 [AZD-6482] | 1.2
36 | C[C@@H](Nc1cc(F)cc(F)c1)c1cc(C(=O)N(C)C)cc2c(=O)cc(N3CCOCC3)oc12 [AZD-8186] | 0.3
37 | CCN1CCN(Cc2ccc(Nc3ncc(F)c(-c4cc(F)c5nc(C)n(C(C)C)c5c4)n3)nc2)CC1 [Abemaciclib] | 0.7
38 | CN(C)Cc1c(C(=O)NCCOc2ccc(C(=O)NO)cc2)oc2ccccc12 [Abexinostat] | 20
39 | C[C@]12CC[C@H](O)CC1=CC[C@@H]1[C@@H]2CC[C@]2(C)C(c3cccnc3)=CC[C@@H]12 [Abiraterone] | 0
40 | CC#CC(=O)N1CCC[C@H]1c1nc(-c2ccc(C(=O)Nc3ccccn3)cc2)c2c(N)nccn12 [Acalabrutinib] | 0
41 | COc1cc(C)c(/C=C/C(C)=C/C=C/C(C)=C/C(=O)O)c(C)c1C [Acitretin] | 0
42 | CN(C)C/C=C/C(=O)Nc1cc2c(Nc3ccc(F)c(Cl)c3)ncnc2cc1O[C@H]1CCOC1 [Afatinib] | 0
43 | Cn1ncc(Cl)c1-c1cc(C(=O)N[C@H](CN)Cc2cccc(F)c2)sc1Cl [Afuresertib] | 2.8
44 | COc1cccc2c1C(=O)c1c(O)c3c(c(O)c1C2=O)C[C@@](O)(/C(CO)=N/NC(=O)CCCCCN1C(=O)C=CC1=O)C[C@@H]3O[C@H]1C[C@H](N)[C@H](O)[C@H](C)O1 [Aldoxorubicin] | 7.4
45 | CCc1cc2c(cc1N1CCC(N3CCOCC3)CC1)C(C)(C)c1[nH]c3cc(C#N)ccc3c1C2=O [Alectinib] | 0
46 | COc1cc(Nc2ncc3c(n2)-c2ccc(Cl)cc2C(c2c(F)cccc2OC)=NC3)ccc1C(=O)O [Alisertib] | 5.4
47 | Oc1ncnc2[nH]ncc12 [Allopurinol] | 0
48 | Cc1nc(NC(=O)N2CCC[C@H]2C(N)=O)sc1-c1ccnc(C(C)(C)C(F)(F)F)c1 [Alpelisib] | 3.2
49 | O=C(Nc1cc(Oc2cc(F)c(NC(=O)C3(C(=O)Nc4ccc(F)cc4)CC3)cc2F)ccn1)C1CC1 [Altiratinib] | 3.4
50 | CN1CC[C@H](c2c(O)cc(O)c3c(=O)cc(-c4ccccc4Cl)oc23)[C@H](O)C1 [Alvocidib] | 11.9
51 | CCN(CC)CCNC(=O)c1c(C)[nH]c(/C=C2\C(=O)Nc3ccc(-c4csc(-c5ccccc5)n4)cc32)c1C [Amcasertib] | 5.2
52 | CCC1(c2ccc(N)cc2)CCC(=O)NC1=O (centres undefined) [Aminoglutethimide] | 0
53 | COc1cc(NS(C)(=O)=O)ccc1Nc1c2ccccc2nc2ccccc12 [Amsacrine] | 16.7
54 | S=C(NCc1ccc2c(c1)OCO2)N1CCN(c2ncnc3c2oc2ccccc23)CC1 [Amuvatinib] | 0
55 | O=C1CN2Cc3c(ccc(Cl)c3Cl)N=C2N1 [Anagrelide] | 0
56 | CC(C)(C#N)c1cc(Cn2cncn2)cc(C(C)(C)C#N)c1 [Anastrozole] | 0

tested on: JHOS2; experiment: as above; conditions: exposure time: 72 h; concentration range: 5 concentrations over 10,000-fold range
In short: as §1

Row | Structure (SMILES) | drug sensitivity score
57 | COc1cc(CCc2cc(NC(=O)c3ccc(N4CC(C)NC(C)C4)cc3)n[nH]2)cc(OC)c1 (centres undefined) [AZD4547] | 0
58 | CN(C)C(=O)c1ccc(S(=O)(=O)c2ccc(NC(=O)[C@@](C)(O)C(F)(F)F)c(Cl)c2)cc1 [AZD7545] | 0
59 | NC(=O)Nc1cc(-c2cccc(F)c2)sc1C(=O)N[C@H]1CCCNC1 [AZD7762] | 1.9
60 | COc1ccc(-c2ccc3c(N4CCOC[C@@H]4C)nc(N4CCOC[C@@H]4C)nc3n2)cc1CO [AZD8055] | 14.4
61 | N#Cc1ccc2[nH]c(O)c(-c3ccc(CN4CCOCC4)cn3)c2c1 [AZD-1080] | 0
62 | Cc1ncc(-c2ccnc(Nc3ccc(S(C)(=O)=O)cc3)n2)n1C(C)C [AZD-5438] | 7.9
63 | Cc1cc([C@@H](C)Nc2ccccc2C(=O)O)c2nc(N3CCOCC3)cc(=O)n2c1 [AZD-6482] | 0
64 | C[C@@H](Nc1cc(F)cc(F)c1)c1cc(C(=O)N(C)C)cc2c(=O)cc(N3CCOCC3)oc12 [AZD-8186] | 0.8
65 | CCN1CCN(Cc2ccc(Nc3ncc(F)c(-c4cc(F)c5nc(C)n(C(C)C)c5c4)n3)nc2)CC1 [Abemaciclib] | 5.5
66 | CN(C)Cc1c(C(=O)NCCOc2ccc(C(=O)NO)cc2)oc2ccccc12 [Abexinostat] | 11.8
67 | C[C@]12CC[C@H](O)CC1=CC[C@@H]1[C@@H]2CC[C@]2(C)C(c3cccnc3)=CC[C@@H]12 [Abiraterone] | 0
68 | CC#CC(=O)N1CCC[C@H]1c1nc(-c2ccc(C(=O)Nc3ccccn3)cc2)c2c(N)nccn12 [Acalabrutinib] | 0.8
69 | COc1cc(C)c(/C=C/C(C)=C/C=C/C(C)=C/C(=O)O)c(C)c1C [Acitretin] | 1.3
70 | CN(C)C/C=C/C(=O)Nc1cc2c(Nc3ccc(F)c(Cl)c3)ncnc2cc1O[C@H]1CCOC1 [Afatinib] | 2.7
71 | Cn1ncc(Cl)c1-c1cc(C(=O)N[C@H](CN)Cc2cccc(F)c2)sc1Cl [Afuresertib] | 0
72 | COc1cccc2c1C(=O)c1c(O)c3c(c(O)c1C2=O)C[C@@](O)(/C(CO)=N/NC(=O)CCCCCN1C(=O)C=CC1=O)C[C@@H]3O[C@H]1C[C@H](N)[C@H](O)[C@H](C)O1 [Aldoxorubicin] | 7.3
73 | CCc1cc2c(cc1N1CCC(N3CCOCC3)CC1)C(C)(C)c1[nH]c3cc(C#N)ccc3c1C2=O [Alectinib] | 0
74 | COc1cc(Nc2ncc3c(n2)-c2ccc(Cl)cc2C(c2c(F)cccc2OC)=NC3)ccc1C(=O)O [Alisertib] | 0.4
75 | Oc1ncnc2[nH]ncc12 [Allopurinol] | 0
76 | Cc1nc(NC(=O)N2CCC[C@H]2C(N)=O)sc1-c1ccnc(C(C)(C)C(F)(F)F)c1 [Alpelisib] | 0.6
77 | O=C(Nc1cc(Oc2cc(F)c(NC(=O)C3(C(=O)Nc4ccc(F)cc4)CC3)cc2F)ccn1)C1CC1 [Altiratinib] | 4.3
78 | CN1CC[C@H](c2c(O)cc(O)c3c(=O)cc(-c4ccccc4Cl)oc23)[C@H](O)C1 [Alvocidib] | 14
79 | CCN(CC)CCNC(=O)c1c(C)[nH]c(/C=C2\C(=O)Nc3ccc(-c4csc(-c5ccccc5)n4)cc32)c1C [Amcasertib] | 0
80 | CCC1(c2ccc(N)cc2)CCC(=O)NC1=O (centres undefined) [Aminoglutethimide] | 0
81 | COc1cc(NS(C)(=O)=O)ccc1Nc1c2ccccc2nc2ccccc12 [Amsacrine] | 3.8
82 | S=C(NCc1ccc2c(c1)OCO2)N1CCN(c2ncnc3c2oc2ccccc23)CC1 [Amuvatinib] | 0
83 | O=C1CN2Cc3c(ccc(Cl)c3Cl)N=C2N1 [Anagrelide] | 0
84 | CC(C)(C#N)c1cc(Cn2cncn2)cc(C(C)(C)C#N)c1 [Anastrozole] | 0
